Blank lines part the entries; values can stand above or below the compound they belong to.
Key:
[1] = biological target: Cyclin-dependent kinase 5/CDK5 activator 1 (Homo sapiens) (UniProt Q00535+Q15078); assay: Inhibition of CDK5/p35 (unknown origin) at 100 nM in presence of ATP relative to control; assay type: protein-complex assay
MIA PaCa-2 [2] = assay: Induction of apoptosis in human MIAPaCa2 cells assessed as increase in caspases 3/7 activity at 10 uM after 12 hrs by Caspase-Glo assay relative to control; assay type: functional
ASPC1 = assay: Antiproliferative activity against human AsPC1 cells after 72 hrs by prestoblue assay; assay type: functional, cell-based; settings: ASPC1, 72 h
BXPC-3 = assay: Antiproliferative activity against human BxPC3 cells after 72 hrs by prestoblue assay; assay type: functional, cell-based; settings: BXPC-3, 72 h
MIA PaCa-2 [3] = assay: Antiproliferative activity against human MIAPaCa2 cells after 72 hrs by prestoblue assay; assay type: functional, cell-based; settings: MIA PaCa-2, 72 h
[4] = Antiproliferative activity against human SUIT2 cells after 72 hrs by prestoblue assay; assay type: functional, cell-based; settings: SUIT-2, 72 h
[5] = Antiproliferative activity against human S2-013 cells after 72 hrs by prestoblue assay; assay type: functional, cell-based
[6] = biological target: Cyclin-dependent kinase 2/cyclin E1 (Homo sapiens, UniProt P24941); assay: Inhibition of CDK2/CyclinE (unknown origin) in presence of ATP; assay type: protein-complex assay
[7] = biological target: Cyclin-dependent kinase 5/CDK5 activator 1 (Homo sapiens, UniProt Q00535); assay: Inhibition of CDK5/p35 (unknown origin) in presence of ATP; assay type: protein-complex assay
[8] = biological target: Cyclin-dependent kinase 9 (Homo sapiens, UniProt P50750); assay: Inhibition of CDK9 (unknown origin)
[9] = biological target: Tyrosine-protein kinase BTK (Homo sapiens, UniProt Q06187); assay: Inhibition of BTK (unknown origin)
[10] = biological target: T1, Inhibitor of nuclear factor kappa-B kinase subunit beta (Homo sapiens, UniProt O14920); assay: Inhibition of IKKbeta (unknown origin)
T1 sequence (O14920 whole entry): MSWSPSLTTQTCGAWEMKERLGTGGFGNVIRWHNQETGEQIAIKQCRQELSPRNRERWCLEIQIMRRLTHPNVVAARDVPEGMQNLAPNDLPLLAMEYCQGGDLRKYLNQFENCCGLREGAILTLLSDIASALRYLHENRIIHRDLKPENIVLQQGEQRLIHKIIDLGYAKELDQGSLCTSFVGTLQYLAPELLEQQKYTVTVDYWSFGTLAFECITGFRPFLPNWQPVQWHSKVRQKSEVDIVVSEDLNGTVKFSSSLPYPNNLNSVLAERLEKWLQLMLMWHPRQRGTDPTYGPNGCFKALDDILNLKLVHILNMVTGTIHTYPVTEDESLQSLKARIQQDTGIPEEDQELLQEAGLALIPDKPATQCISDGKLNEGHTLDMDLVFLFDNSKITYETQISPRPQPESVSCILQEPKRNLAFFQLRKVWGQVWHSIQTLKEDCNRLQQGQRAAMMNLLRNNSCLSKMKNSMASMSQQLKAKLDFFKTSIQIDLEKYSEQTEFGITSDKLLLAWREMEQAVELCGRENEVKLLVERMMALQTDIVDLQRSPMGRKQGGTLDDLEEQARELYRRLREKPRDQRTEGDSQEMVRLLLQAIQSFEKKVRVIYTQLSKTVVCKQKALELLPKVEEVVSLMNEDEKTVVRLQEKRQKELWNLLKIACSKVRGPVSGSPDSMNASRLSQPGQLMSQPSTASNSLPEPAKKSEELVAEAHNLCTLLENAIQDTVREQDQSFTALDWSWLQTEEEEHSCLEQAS

Aurora kinase A = biological target: T2, Aurora kinase A (Homo sapiens, UniProt O14965); assay: Inhibition of Aurora A (unknown origin)
T2 sequence (O14965 whole entry): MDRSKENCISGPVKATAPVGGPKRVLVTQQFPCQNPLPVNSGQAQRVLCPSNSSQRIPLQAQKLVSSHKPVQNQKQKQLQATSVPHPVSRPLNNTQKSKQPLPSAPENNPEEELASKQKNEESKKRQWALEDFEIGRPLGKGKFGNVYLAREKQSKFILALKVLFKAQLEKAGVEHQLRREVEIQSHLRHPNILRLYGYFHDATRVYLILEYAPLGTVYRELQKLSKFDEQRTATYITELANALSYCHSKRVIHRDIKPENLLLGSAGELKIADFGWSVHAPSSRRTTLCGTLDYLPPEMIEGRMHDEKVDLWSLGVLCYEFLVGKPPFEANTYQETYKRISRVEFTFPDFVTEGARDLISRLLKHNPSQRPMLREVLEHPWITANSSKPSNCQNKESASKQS

Aurora kinase B = Aurora kinase B (Homo sapiens, UniProt Q96GD4); assay: Inhibition of Aurora B (unknown origin)
[11] = biological target: T3, Mitogen-activated protein kinase kinase kinase 12 (Homo sapiens, UniProt Q12852); assay: Inhibition of DLK (unknown origin)
T3 sequence (Q12852 whole entry): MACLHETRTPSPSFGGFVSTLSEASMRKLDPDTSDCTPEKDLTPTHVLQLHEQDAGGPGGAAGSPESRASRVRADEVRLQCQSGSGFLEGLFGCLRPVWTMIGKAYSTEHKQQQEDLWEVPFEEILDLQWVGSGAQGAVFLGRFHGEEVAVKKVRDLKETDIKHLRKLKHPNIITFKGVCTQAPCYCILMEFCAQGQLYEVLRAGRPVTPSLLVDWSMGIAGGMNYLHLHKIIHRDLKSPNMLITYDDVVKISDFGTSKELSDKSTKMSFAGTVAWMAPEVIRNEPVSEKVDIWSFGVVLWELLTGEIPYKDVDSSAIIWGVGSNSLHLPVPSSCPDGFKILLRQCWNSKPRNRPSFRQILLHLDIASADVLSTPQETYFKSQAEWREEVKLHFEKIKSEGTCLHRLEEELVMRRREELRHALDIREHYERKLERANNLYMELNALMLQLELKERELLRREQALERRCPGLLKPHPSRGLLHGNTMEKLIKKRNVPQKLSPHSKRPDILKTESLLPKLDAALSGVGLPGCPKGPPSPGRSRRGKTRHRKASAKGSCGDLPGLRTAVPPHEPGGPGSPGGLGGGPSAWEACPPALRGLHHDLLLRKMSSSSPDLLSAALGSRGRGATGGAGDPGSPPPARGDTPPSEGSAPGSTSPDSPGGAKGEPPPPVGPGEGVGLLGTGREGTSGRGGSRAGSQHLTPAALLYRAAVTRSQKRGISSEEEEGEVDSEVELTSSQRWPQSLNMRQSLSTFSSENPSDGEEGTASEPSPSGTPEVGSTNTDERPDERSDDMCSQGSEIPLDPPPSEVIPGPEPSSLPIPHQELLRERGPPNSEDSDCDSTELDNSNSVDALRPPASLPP

[12] = biological target: T4, Tyrosine-protein kinase ITK/TSK (Homo sapiens, UniProt Q08881); assay: Inhibition of ITK (unknown origin)
T4 sequence (Q08881 whole entry): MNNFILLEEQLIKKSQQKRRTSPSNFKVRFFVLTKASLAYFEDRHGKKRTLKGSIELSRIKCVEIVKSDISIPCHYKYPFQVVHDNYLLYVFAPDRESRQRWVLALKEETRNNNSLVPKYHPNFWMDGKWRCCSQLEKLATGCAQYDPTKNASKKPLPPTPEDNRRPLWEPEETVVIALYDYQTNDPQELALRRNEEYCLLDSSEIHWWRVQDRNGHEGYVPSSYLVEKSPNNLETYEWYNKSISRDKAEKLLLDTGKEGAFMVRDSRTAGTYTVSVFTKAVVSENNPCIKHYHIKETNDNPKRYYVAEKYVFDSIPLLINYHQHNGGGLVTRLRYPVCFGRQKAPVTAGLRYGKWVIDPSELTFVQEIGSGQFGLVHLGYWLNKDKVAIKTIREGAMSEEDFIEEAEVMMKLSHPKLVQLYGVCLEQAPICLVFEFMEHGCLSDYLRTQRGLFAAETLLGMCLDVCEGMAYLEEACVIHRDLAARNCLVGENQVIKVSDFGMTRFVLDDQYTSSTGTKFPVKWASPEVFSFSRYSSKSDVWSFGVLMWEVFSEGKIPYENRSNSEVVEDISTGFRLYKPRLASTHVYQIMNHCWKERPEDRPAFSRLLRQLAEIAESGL

[13] = biological target: Mitogen-activated protein kinase 10 (Homo sapiens, UniProt P53779); assay: Inhibition of JNK3 (unknown origin) after 22 mins by homogeneous time-resolved fluorescence assay
[14] = biological target: Mitogen-activated protein kinase 14 (Homo sapiens, UniProt Q16539); assay: Inhibition of MAPK14 (unknown origin) after 22 mins by homogeneous time-resolved fluorescence assay
[15] = biological target: Serine/threonine-protein kinase PAK 1 (Homo sapiens, UniProt Q13153); assay: Inhibition of PAK1 (unknown origin)
[16] = biological target: High affinity nerve growth factor receptor (Homo sapiens, UniProt P04629); assay: Inhibition of TRKA (unknown origin)
[17] = biological target: Leucine-rich repeat serine/threonine-protein kinase 2 (Homo sapiens, UniProt Q5S007); assay: Inhibition of LRRK2 (unknown origin)
Homo sapiens [18] = organism: Homo sapiens; assay: Selectivity ratio of IC50 for CDK9 (unknown origin) to IC50 for CDK2/CyclinE (unknown origin)
Homo sapiens [19] = organism: Homo sapiens; assay: Selectivity ratio of IC50 for CDK9 (unknown origin) to IC50 for CDK5/p35 (unknown origin)

Chain of Cyclin-dependent kinase 5/CDK5 activator 1 (Homo sapiens) (Q00535 whole entry): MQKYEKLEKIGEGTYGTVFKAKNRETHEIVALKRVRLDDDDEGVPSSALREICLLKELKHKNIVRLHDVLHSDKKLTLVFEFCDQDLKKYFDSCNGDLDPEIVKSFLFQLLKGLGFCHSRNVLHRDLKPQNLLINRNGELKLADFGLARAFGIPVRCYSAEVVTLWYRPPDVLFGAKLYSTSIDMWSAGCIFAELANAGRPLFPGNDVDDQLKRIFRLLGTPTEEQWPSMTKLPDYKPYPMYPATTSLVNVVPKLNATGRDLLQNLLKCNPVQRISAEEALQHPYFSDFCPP
Chain of Cyclin-dependent kinase 5/CDK5 activator 1 (Homo sapiens) (Q15078 99-307 partner limits assumed): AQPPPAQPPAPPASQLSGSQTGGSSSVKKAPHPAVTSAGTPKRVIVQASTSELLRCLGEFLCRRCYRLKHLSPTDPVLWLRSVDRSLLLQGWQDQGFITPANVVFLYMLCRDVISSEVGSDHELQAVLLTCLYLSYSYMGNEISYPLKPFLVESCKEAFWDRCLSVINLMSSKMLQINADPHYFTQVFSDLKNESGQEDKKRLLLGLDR
Chain of Cyclin-dependent kinase 9 (P50750 whole entry): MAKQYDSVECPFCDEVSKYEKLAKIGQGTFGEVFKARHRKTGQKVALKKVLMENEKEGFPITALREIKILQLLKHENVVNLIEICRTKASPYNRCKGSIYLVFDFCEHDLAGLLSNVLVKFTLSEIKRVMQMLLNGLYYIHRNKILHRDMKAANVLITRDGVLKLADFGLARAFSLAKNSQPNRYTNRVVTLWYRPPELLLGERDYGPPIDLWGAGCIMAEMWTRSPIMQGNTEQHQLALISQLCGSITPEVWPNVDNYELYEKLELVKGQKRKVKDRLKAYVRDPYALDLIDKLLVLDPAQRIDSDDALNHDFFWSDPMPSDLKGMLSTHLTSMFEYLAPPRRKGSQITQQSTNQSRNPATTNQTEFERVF
Chain of Tyrosine-protein kinase BTK (Q06187 whole entry): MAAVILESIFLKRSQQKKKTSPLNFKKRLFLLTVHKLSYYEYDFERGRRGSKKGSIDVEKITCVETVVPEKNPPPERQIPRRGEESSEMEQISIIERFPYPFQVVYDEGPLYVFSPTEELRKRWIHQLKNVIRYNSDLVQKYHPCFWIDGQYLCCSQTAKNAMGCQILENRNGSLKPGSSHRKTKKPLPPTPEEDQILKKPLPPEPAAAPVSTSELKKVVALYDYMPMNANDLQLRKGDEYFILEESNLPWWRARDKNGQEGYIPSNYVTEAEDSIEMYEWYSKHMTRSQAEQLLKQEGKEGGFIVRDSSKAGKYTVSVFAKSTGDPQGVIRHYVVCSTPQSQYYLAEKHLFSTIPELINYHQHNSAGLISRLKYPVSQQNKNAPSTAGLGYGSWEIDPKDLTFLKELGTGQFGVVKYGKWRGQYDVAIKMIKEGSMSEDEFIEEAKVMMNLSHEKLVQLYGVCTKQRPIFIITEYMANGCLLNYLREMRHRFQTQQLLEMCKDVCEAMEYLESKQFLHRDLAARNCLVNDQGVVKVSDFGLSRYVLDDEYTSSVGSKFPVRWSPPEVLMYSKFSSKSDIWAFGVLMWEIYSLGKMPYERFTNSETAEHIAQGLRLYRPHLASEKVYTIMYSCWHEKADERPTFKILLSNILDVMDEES
Chain of Mitogen-activated protein kinase 14 (Q16539 whole entry): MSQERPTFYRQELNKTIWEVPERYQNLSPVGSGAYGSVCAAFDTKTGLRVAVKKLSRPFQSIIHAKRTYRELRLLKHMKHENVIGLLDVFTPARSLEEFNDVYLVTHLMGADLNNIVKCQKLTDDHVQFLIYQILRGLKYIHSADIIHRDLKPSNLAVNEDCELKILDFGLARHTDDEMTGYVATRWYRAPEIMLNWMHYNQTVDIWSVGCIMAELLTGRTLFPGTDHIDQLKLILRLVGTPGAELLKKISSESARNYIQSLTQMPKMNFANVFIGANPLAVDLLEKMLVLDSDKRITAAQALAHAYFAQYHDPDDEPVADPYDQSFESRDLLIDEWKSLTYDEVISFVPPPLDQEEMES
Chain of Aurora kinase B (Q96GD4 whole entry): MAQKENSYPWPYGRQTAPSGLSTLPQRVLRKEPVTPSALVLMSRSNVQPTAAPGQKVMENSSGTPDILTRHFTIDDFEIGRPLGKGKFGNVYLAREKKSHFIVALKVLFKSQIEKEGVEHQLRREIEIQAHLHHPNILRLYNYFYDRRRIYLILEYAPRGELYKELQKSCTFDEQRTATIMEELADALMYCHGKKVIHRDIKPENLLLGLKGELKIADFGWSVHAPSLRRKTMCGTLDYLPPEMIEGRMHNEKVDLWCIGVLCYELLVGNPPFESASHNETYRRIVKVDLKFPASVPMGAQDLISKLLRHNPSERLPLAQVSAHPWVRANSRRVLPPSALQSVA
Chain of Serine/threonine-protein kinase PAK 1 (Q13153 whole entry): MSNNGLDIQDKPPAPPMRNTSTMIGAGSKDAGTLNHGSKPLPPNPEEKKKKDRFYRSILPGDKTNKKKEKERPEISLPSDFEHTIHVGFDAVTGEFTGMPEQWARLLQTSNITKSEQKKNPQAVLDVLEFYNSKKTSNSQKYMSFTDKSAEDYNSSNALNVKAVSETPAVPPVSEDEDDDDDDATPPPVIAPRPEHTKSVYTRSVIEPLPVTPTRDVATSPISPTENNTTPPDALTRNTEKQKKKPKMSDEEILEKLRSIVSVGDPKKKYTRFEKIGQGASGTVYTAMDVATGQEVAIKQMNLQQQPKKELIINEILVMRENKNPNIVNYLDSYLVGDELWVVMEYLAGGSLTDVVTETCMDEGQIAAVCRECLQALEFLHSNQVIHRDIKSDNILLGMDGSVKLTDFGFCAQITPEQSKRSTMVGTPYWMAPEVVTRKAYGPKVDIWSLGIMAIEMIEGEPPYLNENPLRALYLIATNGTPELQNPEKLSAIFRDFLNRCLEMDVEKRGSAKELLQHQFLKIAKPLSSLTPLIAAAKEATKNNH
Chain of Cyclin-dependent kinase 5/CDK5 activator 1 (Q00535 whole entry): as the sequence (Q00535 whole entry) above
Chain of Cyclin-dependent kinase 5/CDK5 activator 1 (Q15078 whole entry, further chain): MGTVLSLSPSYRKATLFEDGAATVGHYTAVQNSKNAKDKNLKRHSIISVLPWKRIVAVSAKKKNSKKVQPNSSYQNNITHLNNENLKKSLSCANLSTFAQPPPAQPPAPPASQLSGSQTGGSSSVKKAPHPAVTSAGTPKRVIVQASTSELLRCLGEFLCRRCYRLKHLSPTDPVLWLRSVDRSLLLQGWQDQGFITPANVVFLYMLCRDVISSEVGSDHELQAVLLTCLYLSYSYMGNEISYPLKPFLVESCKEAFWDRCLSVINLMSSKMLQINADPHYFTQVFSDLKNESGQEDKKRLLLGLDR
Chain of High affinity nerve growth factor receptor (P04629 whole entry): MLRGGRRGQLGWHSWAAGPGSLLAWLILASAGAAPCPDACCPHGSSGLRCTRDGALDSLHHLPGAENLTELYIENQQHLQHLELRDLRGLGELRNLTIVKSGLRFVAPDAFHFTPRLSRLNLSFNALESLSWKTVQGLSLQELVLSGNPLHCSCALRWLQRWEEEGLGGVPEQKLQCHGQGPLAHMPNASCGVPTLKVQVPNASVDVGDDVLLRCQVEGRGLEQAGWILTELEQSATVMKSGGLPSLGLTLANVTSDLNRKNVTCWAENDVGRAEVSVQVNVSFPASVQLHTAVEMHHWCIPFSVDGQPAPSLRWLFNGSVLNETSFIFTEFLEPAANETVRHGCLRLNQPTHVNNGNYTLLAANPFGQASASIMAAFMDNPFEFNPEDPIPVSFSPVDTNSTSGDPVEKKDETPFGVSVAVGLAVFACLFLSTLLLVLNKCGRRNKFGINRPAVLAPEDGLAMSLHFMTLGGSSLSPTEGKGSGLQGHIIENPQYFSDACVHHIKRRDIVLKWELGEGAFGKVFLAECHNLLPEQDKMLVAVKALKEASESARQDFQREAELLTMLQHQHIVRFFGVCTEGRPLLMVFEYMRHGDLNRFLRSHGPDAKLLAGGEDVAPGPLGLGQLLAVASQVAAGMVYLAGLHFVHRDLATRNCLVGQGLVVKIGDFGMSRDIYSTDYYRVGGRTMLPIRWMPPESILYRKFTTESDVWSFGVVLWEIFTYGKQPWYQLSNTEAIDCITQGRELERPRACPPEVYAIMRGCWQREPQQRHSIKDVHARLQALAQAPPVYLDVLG
Chain of Mitogen-activated protein kinase 10 (P53779 whole entry): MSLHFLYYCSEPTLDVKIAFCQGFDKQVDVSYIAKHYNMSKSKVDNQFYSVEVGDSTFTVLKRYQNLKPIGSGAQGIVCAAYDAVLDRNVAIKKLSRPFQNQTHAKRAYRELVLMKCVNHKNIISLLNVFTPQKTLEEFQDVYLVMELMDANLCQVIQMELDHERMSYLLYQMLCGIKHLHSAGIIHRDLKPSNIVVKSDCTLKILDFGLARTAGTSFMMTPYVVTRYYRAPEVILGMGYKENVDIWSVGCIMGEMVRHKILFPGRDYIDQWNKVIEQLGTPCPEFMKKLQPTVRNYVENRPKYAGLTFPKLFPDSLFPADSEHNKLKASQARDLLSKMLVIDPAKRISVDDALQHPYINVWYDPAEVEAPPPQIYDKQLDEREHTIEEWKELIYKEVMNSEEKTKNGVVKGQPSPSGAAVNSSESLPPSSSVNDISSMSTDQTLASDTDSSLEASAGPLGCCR

- inhibition [1]: > 90%
SMILES: O=C(Cc1ccc2ccccc2c1)Nc1cc(C2CC2)n[nH]1
- fold change (FC) (MIA PaCa-2 [2]): <2

- inhibition [1]: > 90%
SMILES: O=C(Cc1ccc2c(c1)OCCO2)Nc1cc(-c2ccccc2)[nH]n1
- fold change (FC) (MIA PaCa-2 [2]): <2

- inhibition [1]: > 90%
- IC50 (ASPC1): > 2000 nM
- IC50 (BXPC-3): > 2000 nM
- IC50 (MIA PaCa-2 [3]): 1560 nM
SMILES: O=C(C/C=C/c1ccccc1)Nc1cc(C2CCC2)[nH]n1
- fold change (FC) (MIA PaCa-2 [2]): >2
- IC50 [4]: > 2000 nM
- IC50 [5]: 1470 nM

- inhibition [1]: > 90%
- IC50 (ASPC1): 315 nM
- IC50 (MIA PaCa-2 [3]): 247 nM
- IC50 [6]: 24 nM
- IC50 [7]: 23 nM
- IC50 [8]: 911 nM
- IC50 [9]: > 10000 nM
- IC50 [10]: > 10000 nM
- IC50 (Aurora kinase A): > 10000 nM
- IC50 (Aurora kinase B): > 10000 nM
- IC50 [11]: > 10000 nM
- IC50 [12]: > 10000 nM
- IC50 [13]: > 10000 nM
- IC50 [14]: > 10000 nM
- IC50 [15]: > 10000 nM
- IC50 [16]: > 10000 nM
- IC50 [17]: > 10000 nM
- Ratio IC50 (Homo sapiens [18]): > 35
- Ratio IC50 (Homo sapiens [19]): > 35
SMILES: O=C(Cc1ccc(-c2ccccc2)cc1)Nc1cc(C2CCC2)[nH]n1
- fold change (FC) (MIA PaCa-2 [2]): >2
- IC50 [4]: 209 nM
- IC50 [5]: 192 nM

- IC50 (BXPC-3): 640 nM
- IC50 (MIA PaCa-2 [3]): 411 nM
SMILES: O=C(NC1CCNCC1)c1n[nH]cc1NC(=O)c1c(Cl)cccc1Cl [AT-7519]
- IC50 [4]: 557 nM
- IC50 [5]: 2770 nM

- inhibition [1]: > 90%
SMILES: COc1ccc(CC(=O)Nc2cc(C3CCC3)[nH]n2)cc1OC
- fold change (FC) (MIA PaCa-2 [2]): <2

- inhibition [1]: > 90%
SMILES: O=C(Cc1ccc2c(c1)OCCO2)Nc1cc(C2CCC2)[nH]n1
- fold change (FC) (MIA PaCa-2 [2]): <2

- inhibition [1]: > 90%
SMILES: O=C(C/C=C/c1ccccc1)Nc1cc(C2CCCC2)[nH]n1
- fold change (FC) (MIA PaCa-2 [2]): <2

- inhibition [1]: > 90%
SMILES: Cc1cc(NC(=O)C/C=C/c2ccccc2)n[nH]1
- fold change (FC) (MIA PaCa-2 [2]): <2

- inhibition [1]: > 90%
SMILES: O=C(Cc1ccc2c(c1)OCCO2)Nc1cc(C2CCCC2)[nH]n1
- fold change (FC) (MIA PaCa-2 [2]): <2

- inhibition [1]: > 90%
- IC50 (ASPC1): 1160 nM
- IC50 (BXPC-3): > 2000 nM
SMILES: O=C(Cc1ccc2ccccc2c1)Nc1cc(C2CCC2)[nH]n1
- fold change (FC) (MIA PaCa-2 [2]): >2
- IC50 [4]: > 2000 nM
- IC50 [5]: 875 nM

- inhibition [1]: > 90%
SMILES: Cc1cc(NC(=O)Cc2ccc3ccccc3c2)n[nH]1
- fold change (FC) (MIA PaCa-2 [2]): <2

- inhibition [1]: > 90%
SMILES: Cc1cc(NC(=O)Cc2ccc3c(c2)OCCO3)n[nH]1
- fold change (FC) (MIA PaCa-2 [2]): <2

- inhibition [1]: > 90%
SMILES: COc1ccc(CC(=O)Nc2n[nH]c3ccccc23)cc1OC
- fold change (FC) (MIA PaCa-2 [2]): <2

- inhibition [1]: > 90%
SMILES: O=C(C/C=C/c1ccccc1)Nc1n[nH]c2ccccc12
- fold change (FC) (MIA PaCa-2 [2]): <2

Reference: ChEMBL document CHEMBL4325851, “Synthesis of aminopyrazole analogs and their evaluation as CDK inhibitors for cancer therapy” (Bioorg Med Chem Lett, 2018)
